Reference: paper PMC9633586 (Biochemistry, 2022)

Molecular target: Cj1438 (Campylobacter jejuni, UniProt Q0P8H6)
Test: […] NMR, formation of S-11
Type: biochemical
Details: 20 mM MgCl2, 10 mM ATP, 10 mM D-glucuronate, 50 mM HEPES/K+ pH 8.0, 25 °C

For N[C@@H](CO)COP(=O)(O)O [S-4, S-serinol phosphate], which “31P NMR, formation of S-11” value is on record?
The value was “Cj1438 catalyzes the formation of compound S-11 using D-glucuronate, MgATP, and S-serinol phosphate (S-4)”.
